From publication PMC6270837, “Preparation and Biological Properties of Ring-Substituted Naphthalene-1-Carboxanilides” (Molecules, 2014)
Entries after “also recorded” stand apart in the source; their conditions may differ. Read-outs that look alike come from different tables or passages of the source.

How the values were obtained:
[1] = Lipophilicity determination by RP-HPLC (capacity factor, log k); format: physicochemical; conditions: end-capped C18, isocratic MeOH 60%/H2O 40%
Protocol: Lipophilicity is a property that has a major effect on bioavailability, biotransformation as well as pharmacological activity, because drugs cross biological membranes through passive transport, which strongly depends on their lipophilicity. Lipophilicity of the studied compounds was determined by RP‑HPLC as capacity factor logarithm (log k). The procedure was performed under isocratic conditions with methanol as an organic modifier in the mobile phase using an end-capped non-polar C18 stationary RP column. The results of ring-substituted naphthalene-1-carboxanilides 1–8c are shown in Table 1 and illustrated in Figure 1. […] Lipophilicity was also calculated as log P using ACD/Percepta ver. 2012 (Advanced Chemistry Development, Inc., Toronto, ON, Canada).
A HPLC system Agilent 1200 equipped with DAD detector (Agilent, USA) was used. A chromatographic column Symmetry® C18 5 μm, 4.6 × 250 mm, Part No. WAT054275 (Waters Corp., Milford, MA, USA) was used. The HPLC separation process was monitored and evaluated by EZChrom Elite software ver. 3.3.2 (Agilent, USA). Isocratic elution by a mixture of MeOH p.a. (60%) and H2O-HPLC Mili-Q grade (40%) as a mobile phase was used. The total flow of the column was 1.0 mL/min, injection 20 μL, column temperature 40 °C, and sample temperature 10 °C. The detection wavelength 210 nm was chosen. The KI methanolic solution was used for the dead time (tD) determination. Retention times (tR) were measured in minutes. The capacity factors k were calculated according to formula k = (tR − tD)/tD, where tR is the retention time of the solute, whereas tD denotes the dead time obtained using an unretained analyte. Log k, calculated from the capacity factor k, is used as the lipophilicity index converted to log P scale.

[2] = system: Mycobacterium avium subsp. paratuberculosis CIT03; experiment: In vitro antimycobacterial evaluation (MIC/IC90, alamarBlue); format: cell-based; conditions: for antimycobacterial activity relative to ciprofloxacin / antimycobacterial activity relative to rifampicin: M. avium subsp. paratuberculosis, comparison of MICs; for MIC: Mycobacterium avium
Protocol: The MIC/IC90 value is routinely and widely used in bacterial assays and is a standard detection limit according to the Clinical and Laboratory Standards Institute.
A well-characterized clinical isolate of Mycobacterium avium subsp. paratuberculosis (CIT03) was grown in Middlebrook broth (MB), supplemented with Oleic-Albumin-Dextrose-Catalase supplement (OADC, Becton, Dickinson and Comp., Franklin Lakes, NJ, USA) and mycobactin J (2 µg/mL). Identification of this isolate was performed using biochemical and molecular protocols. At log phase growth, a culture sample (10 mL) was centrifuged at 15,000 rpm/20 min using a bench top centrifuge (Model CR 4-12, Jouan Inc., Winchester, VA, USA). Following removal of the supernatant, the pellet was washed in fresh Middlebrook 7H9GC broth and re-suspended in fresh supplemented MB (10 mL). The turbidity was adjusted to match McFarland standard No. 1 (3 × 10^8 cfu) with MB broth. A further 1:20 dilution of the culture was then performed in MB broth. The antimicrobial susceptibility of the mycobacterial species was investigated in a 96-well plate format. In these experiments, sterile deionized water (300 µL) was added to all outer-perimeter wells of the plates to minimize evaporation of the medium in the test wells during incubation. Each evaluated compound (100 µL) was incubated with the mycobacterial species (100 µL). Dilutions of each compound were prepared in duplicate. For all synthesized compounds, final concentrations ranged from 1,000 µg/mL to 8 µg/mL. All compounds were prepared in DMSO and subsequent dilutions were made in supplemented MB. The plates were sealed with parafilm and incubated at 37 °C for 11 days.
Following incubation, a 10% addition of alamarBlue (AbD Serotec, Kidlington, UK) was mixed into each well and readings at 570 nm and 600 nm were taken, initially for background subtraction and subsequently after 24 h re-incubation. […] For non-interfering compounds, a blue colour in the well was interpreted as an absence of growth and a pink colour was scored as growth. Furthermore percent reduction of alamarBlue was calculated to generate quantitative data on cell viability during exposure to antimycobacterial compounds over a period of 5 days. The formula used to determine percent reduction of alamarBlue has been standardized for colorimetric analysis by Abd Serotec.
The MIC value is routinely and widely used in bacterial assays and is a standard detection limit according to the Clinical and Laboratory Standards Institute.

[3] = system: human monocytic leukemia THP-1 cell line; experiment: In vitro cytotoxicity assay (LDH); conditions: for LD50: human, 24 h; for lethal effect / toxicity on THP-1 cells: treatment with 30 μmol/L
Protocol: Human monocytic leukemia THP-1 cells were obtained from the European Collection of Cell Cultures (ECACC, Salisbury, UK; Methods of characterization: DNA Fingerprinting (Multilocus probes) and isoenzyme analysis). These cells were routinely cultured in RPMI 1640 (Lonza, Verviers, Belgium) medium supplemented with 10% fetal bovine serum (FBS, Sigma-Aldrich, St. Louis, MO, USA), 2% L-glutamine, 1% penicillin and streptomycin (Lonza) at 37 °C with 5% CO2. Cells were passaged at approximately one-week intervals. Cells were routinely tested for the absence of mycoplasma (Hoechst 33258 staining method). The tested compounds were dissolved in DMSO (Sigma-Aldrich) and added in five increasing concentrations to the cell suspension in the culture medium. The maximum concentration of DMSO in the assays never exceeded 0.1%. Subsequently, the cells were incubated for 24 h at 37 °C with 5% CO2 to various compound concentrations ranging from […] in RPMI 1640 medium. Cell toxicity was determined using a Cytotoxicity Detection Kit^PLUS Lactate dehydrogenase (LDH) assay kit (Roche Diagnostics, Mannheim, Germany) according to the manufacturer’s instructions, as described previously. For LDH assays, cells were seeded into 96-well plates (5 × 10^4 cells/well in 100 μL culture medium) in triplicate in serum-free RPMI 1640 medium, and measurements at 492 nm wavelength (Synergy 2 Multi-Mode Microplate Reader, BioTek, Winooski, VT, USA) were taken 24 h after the treatment with tested compounds. The median lethal dose values, LD50, were deduced through the production of a dose-response curve. All data were evaluated using GraphPad Prism 5.00 software (GraphPad Software, San Diego, CA, USA).
LDH Test Principle: The LDH activity is determined by a coupled enzymatic reaction, whereby the tetrazolium salt INT is reduced to formazan. An increase in the amount of dead or plasma membrane damaged cells results in an increase of LDH enzyme activity in the culture supernatant. This increase in the amount of enzyme activity in the supernatant directly correlates to the amount of formazan formed during a limited time period.

[4] = system: photosynthetic electron transport (PET) in isolated spinach chloroplasts; experiment: Inhibition of photosynthetic electron transport (PET) in isolated spinach chloroplasts; format: biochemical, Spinacia oleracea L.; conditions: DCPIP photoreduction
Protocol: The PET-inhibiting activity was expressed by IC50 value, i.e., compound concentration in mol/L causing 50% inhibition of PET.
Chloroplasts were prepared from spinach (Spinacia oleracea L.) according to Masarovicova and Kralova. The inhibition of photosynthetic electron transport (PET) in isolated spinach chloroplasts was determined spectrophotometrically (Genesys 6, Thermo Scientific, USA), using an artificial electron acceptor 2,6-dichlorophenol-indophenol (DCIPP) according to Kralova et al., and the rate of photosynthetic electron transport was monitored as a photoreduction of DCPIP. The measurements were carried out in phosphate buffer (0.02 mol/L, pH 7.2) containing sucrose (0.4 mol/L), MgCl2 (0.005 mol/L) and NaCl (0.015 mol/L). The chlorophyll content was 30 mg/L in these experiments and the samples were irradiated (~100 W/m^2 with 10 cm distance) with a halogen lamp (250 W) using a 4 cm water filter to prevent warming of the samples (suspension temperature 22 °C). The studied compounds were dissolved in DMSO due to their limited water solubility. […] The inhibitory efficiency of the studied compounds was expressed by IC50 values, i.e., by molar concentration of the compounds causing 50% decrease in the oxygen evolution rate relative to the untreated control.

[5] = physchem; conditions: aqueous buffer, kinetic from dmso stock
[6] = system: M. avium subsp. paratuberculosis; experiment: MTT assay on mycobacteria; format: cell-based, Mycobacterium avium subsp. paratuberculosis; conditions: lowest tested concentration 8 µg/mL (ca. 30 µmol/L), four hours of incubation
Protocol: Additionally, a standard MTT assay was performed on these same compounds. The MTT assay is a well-characterized method of assessing cell growth through measurement of respiration.
For the MTT assay, the same 96-well plate set up and incubation conditions listed above were used. After the incubation period, a 10% addition of MTT reagent was mixed into each well and incubated at 37 °C for 4 h. The reagent and media were then aspirated from the wells to which 50 µL DMSO was then added and plates were read at 550 nm.

[7] = system: human monocytic leukemia THP-1 cell line; conditions: THP-1 cells; assessed in this line formerly; cited from earlier work
[8] = 264 h, clinical isolate CIT03, 11 days at 37 °C, alamarBlue, MIC = 90% or greater reduction of growth, read-out: MAP MIC/IC90
[9] = clinical isolate CIT03, read-out: MIC
[10] = clinical isolate CIT03, 11 days at 37 °C, alamarBlue, MIC = 90% or greater reduction of growth

Row | SMILES | log k [1] | antimycobacterial activity relative to ciprofloxacin [2] | antimycobacterial activity relative to rifampicin [2] | MIC [2, 8] [µM] | MIC [2, 9] [µg/mL] | MAP MIC/IC90 [2, 10] [µM] | LD50 [3] [µmol/L] | lethal effect / toxicity on THP-1 cells [3] | IC50 [4] [µM] | solubility [5] [µM] | reduction in activity (MTT) [6] | LD50 [7] [µmol/L]
1 | O=C(Nc1cccc(F)c1)c1cccc2ccccc12 [Compound 4b, N-(3-Fluorophenyl)naphthalene-1-carboxamide] | 0.7204 | three-fold higher | two-fold higher | 57 | 15 | 57 | >30 | did not lead to significant lethal effect; also recorded: insignificant toxicity | 131 | ≤ 30 | – | –
2 | COc1ccccc1NC(=O)c1cccc2ccccc12 [Compound 2a, N-(2-Methoxyphenyl)naphthalene-1-carboxamide] | 0.8013 | three-fold higher | two-fold higher | 54 | – | – | >30 | did not lead to significant lethal effect; also recorded: insignificant toxicity | – | ≤ 30 | – | –
3 | Cc1cccc(NC(=O)c2cccc3ccccc23)c1 [Compound 3b, N-(3-Methylphenyl)naphthalene-1-carboxamide] | 0.7624 | three-fold higher | two-fold higher | 57 | – | – | >30 | did not lead to significant lethal effect; also recorded: insignificant toxicity | 136 | ≤ 30 | – | –
4 | COc1cccc(NC(=O)c2cccc3ccccc23)c1 [Compound 2b, N-(3-Methoxyphenyl)naphthalene-1-carboxamide] | 0.6087 | three-fold higher | two-fold higher | 54 | 15 | 54 | >30 | did not lead to significant lethal effect; also recorded: insignificant toxicity | – | ≤ 30 | more than 80% | –
5 | CC[C@@]1(O)C(=O)OCc2c1cc1n(c2=O)Cc2cc3ccccc3nc2-1 [camptothecin] | – | – | – | – | – | – | – | – | – | – | – | 0.16 ± 0.07
